Data taken from US20090047365A1, “Novel Concomitant Use of Sulfonamide Compound with Anti-Cancer Agent” (Eisai R & D Management Co., Ltd., priority 2005, published 2009).
Where “and” joins values, the source holds several entries; their conditions need not be identical. Equal entries are not always repeated. Structures can show the parent of a compound that is named as a salt. Where two headings read alike, the source gives them in different places.

How the values were obtained:
[1] = system: Human umbilical vein endothelial cells; test: vascular endothelial cell proliferation assay (in vitro), combinational use of E7820 and anti-cancer drug; format: cell-based
Description: These diluted solutions were added to the cultured wells for 100 μl/well for further cultivation.

[2] = system: Human umbilical vein endothelial cell (HUVEC); test: vascular endothelial cell lumen formation assay (in vitro), combinational use of E7820 and anti-cancer drug; format: cell-based
Description: Four-hundred μl of type I collagen gel (Nitta Gelatin) was dispensed in a 24-well plate (FALCON) and left in a CO2 incubator at 37° C. for 40 minute for gelatinization. A serum-free medium (Human endothelial-SFM Basal Growth Medium, Invitrogen) containing 20 ng/ml EGF (GIBCO BRL) was prepared. Two-hundred μl of this solution was dispensed in the wells containing type I collagen gel. Human umbilical vein endothelial cell (HUVEC) line was suspended in a serum-free medium (Human endothelial-SFM Basal Growth Medium, GIBCO BRL) to prepare 5×10^5 cells/ml cell suspension. Two-hundred μl of this suspension was seeded on the wells containing the type I collagen gel and the serum-free medium and cultured overnight.
On the following day, the wells were overlaid with 400 μl of type I collagen gel and left in a CO2 incubator at 37° C. for 3 hours for gelatinization. Then, the serum-free media (containing 10 ng/ml EGF and 20 ng/ml VEGF (Genzyme Techne Corp.)) containing E7820 alone, containing an anti-cancer drug alone and containing both E7820 and the anti-cancer drug for combinational use were added for 1.5 ml each and further cultured in a CO2 incubator at 37° C. for 3 days.
After the cultivation, 400 μl of 3.3 mg/ml MTT (SIGMA) solution was dispensed in the wells and reacted in a CO2 incubator at 37° C. for 3 hours for the cells to develop color.

[3] = system: HCT116 cells; test: DNA microarray analysis (Example 8), correlation coefficients and hierarchical cluster analysis; format: cell-based, human; conditions: 24 hours treatment at twice the 50% growth inhibitory concentration, similarity among the compounds named together
Description: HCT116 cells were cultured in an RPMI-1640 medium supplemented with 10% fetal bovine serum, 100 units/ml penicillin and 100 μg/ml streptomycin. The following cultivation and compound treatment were carried out in an incubator at 5% CO2 and 37° C. HCT116 cells were seeded in 10 cm-diameter cell culture dishes at 2.0×10^6 cells/dish, cultured for 24 hours and subjected to the following compound treatment.
In this example, changes in the gene expression of HCT116 cells upon treatments with 12 compounds, i.e., E7820 (0.16 μM), E7070 (0.26 μM), LY186641 (59 μM), LY295501 (24 μM), LY-573636 (9.6 μM), CQS (4.0 μM), MST16 (100 μM), etoposide (3.6 μM), ethoxzolamide (410 μM), capsaicin (280 μM), trichostatin A (0.16 μM) and kenpaullone (7.1 μM) were examined.
The concentration of each compound used for the treatment was set to twice the 50% growth inhibitory concentration of each compound to the HCT116 cells (based on three days of antiproliferatrive activity using MTT). The cells were collected 24 hours after the treatment at the concentration indicated in parentheses following each compound name above. Similarly, cells cultured for 24 hours without the addition of any compound were also collected.
Total RNA extraction from the collected cells was performed using TRIZOL reagent (Invitrogen) according to the attached instruction.
Gene expression analysis using a DNA microarray was carried out in the same manner as “(2) Analysis of gene expression using DNA microarray” in Example 7.
This example was conducted for each sample in duplicate (for the convenience of the experiment, samples were given branch numbers like control-1, control-2, E7070-1, E7070-2 and so on for distinction). Then, GeneChip (Affymetrix) system (Human Focus array) was used for analyzing changes in the gene expression induced by each compound.
Twenty-six “.cel” files obtained in this example (13 samples (a control+12 compounds)×2) were subjected to RMA method (robust multi-array average method (Biostatistics (2003), 4, 249-264)) for normal distribution at probe level, and then the logarithm value of the signal intensity at gene level was calculated. Next, the logarithm value of the signal intensity of the untreated group (control-1) was subtracted from the logarithm value of the signal intensity of the compound-treated group for each gene to obtain the logarithm value of the signal ratio of the compound-treated group to control-1. Then, cosine correlation coefficients were calculated as correlation coefficients between the experiments (FIG. 5). Based on these correlation coefficients, hierarchical cluster analysis was performed according to UPGMA method (Unweighted Pair Group Method with Arithmetic mean method) (FIG. 6). Control-2 was also subjected to similar calculation (FIGS. 7 and 8). The softwares used were R 2.0.1 (http://www.r-project.org/) and affy package 1.5.8 (http://www.bioconductor.org).

[4] = system: HCT116-C9; test: cell growth inhibition assay (MTT), parent line of E7070-resistant lines; format: cell-based, human; conditions: HCT116-C9, 72 hours, Example 11, read-out: antiproliferative activity IC50
Description: An E7070-resistant cell line was used to assess the antiproliferative activities of E7820, LY186641, LY295501, LY-ASAP and CQS. HCT116-C9 was a substrain separated from human colon cancer-derived HCT116 (American Type Culture Collection, Manassas, Va., U.S.A.). This HCT116-C9 was cultured in the presence of E7070 while incrementally increasing the E7070 concentration, thereby obtaining E7070-resistant substrains HCT116-C9-C1 and HCT116-C9-C4 (Molecular Cancer Therapeutics, 2002, 1, 275-286).
Three cell lines, i.e., HCT116-C9, HCT116-C9-C1 and HCT116-C9-C4, were each seeded at 3000 cells/well onto a 96-well microplate (flat bottom) (50 μl/well). Twenty-four hours later, they were added with a 3-fold dilution series of each compound (50 μl/well). Seventy-two hours later, the antiproliferative activities were assessed by MTT method (Mossmann T., J. Immunol. Methods, 1983, 65, 55-63). The 50% growth inhibitory concentrations to the cancer cells were obtained by a least square method.
In exactly the same manner as in Example 10, an E7070-resistant cell line was used to assess the antiproliferative activities of LY573636 as well as those of E7070.

[5] = combined with E7820, fa 0.6, HUVEC proliferation
[6] = combined with E7820, fa 0.7, HUVEC proliferation
[7] = combined with E7820, fa 0.8, HUVEC proliferation
[8] = combined with E7820, fa 0.9, HUVEC proliferation
[9] = combined with E7820, fa 0.95, HUVEC proliferation

Row | Molecule | Combined effect [1, 6] | Combined effect [1, 7] | Combined effect [1, 8] | Combined effect [1, 9] | Combined effect ([2]; combined with E7820, fa 0.3) | Combined effect ([2]; combined with E7820, fa 0.4) | Combined effect ([2]; combined with E7820, fa 0.5) | Combined effect ([2]; combined with E7820, fa 0.6) | Combined effect ([2]; combined with E7820, fa 0.7) | Combined effect ([2]; combined with E7820, fa 0.8) | Combined effect ([2]; combined with E7820, fa 0.9) | Combined effect ([2]; combined with E7820, fa 0.95) | changes in gene expression (correlation coefficients, hierarchical cluster analysis) [3] | further results
1 | 10-[(3-amino-2,3,6-trideoxy-α-L-lyxo-hexopyranosyl)oxy]-7,8,9,10-tetrahydro-6,8,11-tri hydroxy-8-(hydroxyacetyl)-1-methoxy-(8S-cis)-5,12-naphthacenedione [Doxorubicin] | Synergistic | Synergistic | Synergistic | Synergistic | Synergistic | Synergistic | Synergistic | Synergistic | Synergistic | Synergistic | Synergistic | Synergistic |  | Combined effect [1, 5]: Synergistic; Combined effect ([2]; combined with E7820, fa 0.2): Synergistic
2 | Nc1ccc(S(=O)(=O)Nc2cnc3c(Cl)cccc3n2)cc1 [CQS, 2-sulfanylamide-5-chloroquinoxaline] |  |  |  |  |  |  |  |  |  |  |  |  | very similar genetic alterations | 
3 | N.N.[Cl][Pt][Cl] [Cisplatin, cis-diamminedichloroplatinum II] | Synergistic | Synergistic | Synergistic | Synergistic | Synergistic | Synergistic | Synergistic | Synergistic | Synergistic | Synergistic | Synergistic | Synergistic |  | Combined effect [1, 5]: Synergistic; Combination index (CI) [1, 6]: 0.7; Combination index (CI) [1, 7]: 0.5; Combination index (CI) [1, 8]: 0.4; Combination index (CI) [1, 9]: 0.3; Combination index (CI) ([1]; combined with E7820, fractional inhibition (fa) 0.6, HUVEC proliferation): 0.9; Combination index (CI) ([2]; combined with E7820, fa 0.05): 0.7; Combined effect ([2]; combined with E7820, fa 0.05): Synergistic; Combination index (CI) ([2]; combined with E7820, fa 0.1): 0.6; Combined effect ([2]; combined with E7820, fa 0.1): Synergistic; Combination index (CI) ([2]; combined with E7820, fa 0.2): 0.6; Combined effect ([2]; combined with E7820, fa 0.2): Synergistic; Combination index (CI) ([2]; combined with E7820, fa 0.3): 0.6; Combination index (CI) ([2]; combined with E7820, fa 0.4): 0.5; Combination index (CI) ([2]; combined with E7820, fa 0.5): 0.5; Combination index (CI) ([2]; combined with E7820, fa 0.6): 0.5; Combination index (CI) ([2]; combined with E7820, fa 0.7): 0.5; Combination index (CI) ([2]; combined with E7820, fa 0.8): 0.5; Combination index (CI) ([2]; combined with E7820, fa 0.9): 0.5; Combination index (CI) ([2]; combined with E7820, fa 0.95): 0.4
4 | NS(=O)(=O)c1ccc(S(=O)(=O)Nc2cccc3c(Cl)c[nH]c23)cc1 [E7070, N-(3-chloro-1H-indole-7-yl)-4-sulfamoylbenzenesulfonamide] |  |  |  |  |  |  |  |  |  |  |  |  | very similar genetic alterations | IC50 [4]: 127 nM
5 | Nc1ccn([C@@H]2O[C@H](CO)[C@@H](O)C2(F)F)c(=O)n1 [Gemcitabine, 2′-deoxy-2′,2′-difluoro-cytidine hydrochloride] |  | Synergistic | Synergistic |  | Synergistic | Synergistic | Synergistic | Synergistic | Synergistic | Synergistic | Synergistic | Synergistic |  | 
6 | O=C(Nc1ccc(Cl)cc1)NS(=O)(=O)c1ccc2c(c1)CCC2 [LY186641, N-[[(4-chlorophenyl)amino]carbonyl]-2,3-dihydro-1H-indene-5-sulfonamide] |  |  |  |  |  |  |  |  |  |  |  |  | very similar genetic alterations | 
7 | O=C(Nc1ccc(Cl)c(Cl)c1)NS(=O)(=O)c1ccc2c(c1)CCO2 [LY295501, N-[[(3,4-dichlorophenyl)amino]carbonyl]-2,3-dihydrobenzofuran-5-sulfonamide] |  |  |  |  |  |  |  |  |  |  |  |  | very similar genetic alterations | 
8 | O=C(NS(=O)(=O)c1ccc(Br)s1)c1ccc(Cl)cc1Cl [LY573636, N-(2,4-dichlorobenzoyl)-5-bromothiophene-2-sulfonamide] |  |  |  |  |  |  |  |  |  |  |  |  | very similar genetic alterations | 
9 | CN(Cc1cnc2nc(N)nc(N)c2n1)c1ccc(C(=O)N[C@@H](CCC(=O)O)C(=O)O)cc1 [Methotrexate, N-{4-[N-(2,4-diaminopteridin-6-ylmethyl)-N-methylamino]benzoyl}-L-glutamic acid] |  |  | Synergistic | Synergistic |  |  |  |  |  |  |  |  |  | 
10 | CC(=O)O[C@H]1C(=O)[C@@]2(C)[C@H]([C@H](OC(=O)c3ccccc3)[C@]3(O)C[C@H](OC(=O)[C@H](O)[C@@H](NC(=O)c4ccccc4)c4ccccc4)C(C)=C1C3(C)C)[C@]1(OC(C)=O)CO[C@@H]1C[C@@H]2O [Paclitaxel, (−)-(1S, 2R, 3S, 4S, 5R, 7S, 8S, 10R, 13S)-4,10-diacetoxy-2-benzoyloxy-5,20-epoxy, 1,7-dihydroxy-9-oxotax-11-en-13-yl (2S,3S)-3-benzoylamino-2-hydroxy-3-phenylpropionate] | Synergistic | Synergistic | Synergistic | Synergistic |  |  |  |  | Synergistic | Synergistic | Synergistic | Synergistic |  | 
11 | CCc1c2c(nc3ccc(O)cc13)-c1cc3c(c(=O)n1C2)COC(=O)[C@]3(O)CC [SN38, 7-ethyl-10-hydro-(20)S-Camptothecin] | Synergistic | Synergistic | Synergistic | Synergistic | Synergistic | Synergistic | Synergistic | Synergistic | Synergistic | Synergistic | Synergistic | Synergistic |  | Combination index (CI) [1]: 0.6 and 0.5 and 0.8; Combined effect [1, 5]: Synergistic
